Publication PMC7324897 (Dose-Response, 2020)
Entries after “also recorded” stand apart in the source; their conditions may differ.

Tests used:
BChE (from human serum) = BChE (from human serum) (Homo sapiens, UniProt P06276); experiment: In vitro cholinesterase inhibition assay; format: biochemical
BChE = BChE (Homo sapiens, UniProt P06276); experiment: Kinetic study of BChE inhibition; format: biochemical
Sequence of BChE (P06276 29-602): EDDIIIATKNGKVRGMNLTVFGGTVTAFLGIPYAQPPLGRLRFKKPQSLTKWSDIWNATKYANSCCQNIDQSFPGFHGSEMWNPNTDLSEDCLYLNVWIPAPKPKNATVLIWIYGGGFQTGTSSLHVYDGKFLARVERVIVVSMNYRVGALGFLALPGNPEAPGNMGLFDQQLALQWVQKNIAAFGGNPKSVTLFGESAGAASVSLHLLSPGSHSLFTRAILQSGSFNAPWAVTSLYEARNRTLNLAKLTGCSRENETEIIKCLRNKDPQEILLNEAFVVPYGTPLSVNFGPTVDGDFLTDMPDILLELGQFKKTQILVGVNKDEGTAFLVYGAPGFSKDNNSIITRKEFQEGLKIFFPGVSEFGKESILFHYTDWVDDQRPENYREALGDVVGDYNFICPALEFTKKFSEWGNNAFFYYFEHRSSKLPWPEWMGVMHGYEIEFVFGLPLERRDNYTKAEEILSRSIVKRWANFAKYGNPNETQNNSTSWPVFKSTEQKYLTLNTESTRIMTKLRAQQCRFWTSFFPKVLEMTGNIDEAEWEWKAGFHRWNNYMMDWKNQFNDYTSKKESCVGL

Sequence of BChE (from human serum) (P06276 29-602): as above

Question: O=C1CN(C(=O)CCn2ccnc2)CC(O)CN1CCc1ccccc1 (centres unmarked) [Compound 5, 4-(3-(1H-imidazol-1-yl)propanoyl)-6-hydroxy-1-phenethyl-1,4-diazepan-2-one] was tested. Which IC50 (BChE (from human serum)) did it give?
Answer: 1.4 µM

Question: And the inhibition at 10 µM (BChE (from human serum); read-out: BChE IR (%), inhibition ratio)?
Answer: 66%

Question: What about the Ki (BChE) of the same molecule?
Answer: 0.54 ± 0.07 µM

Question: What about the “Type of BChE inhibition” value (BChE) of the same molecule?
Answer: mixed-type inhibitor; also recorded: mixed-type inhibition

Question: What about the “Inhibition constant Ki, uncompetitive part (Kiu)” value (BChE; substrate BTC 90-904 μM) of the same molecule?
Answer: 2.9 ± 1.0 µM
